Test results from patent publication US20230406803A1, “TROPOLONE DERIVATIVES AND TAUTOMERS THEREOF FOR IRON REGULATION IN ANIMALS” (Kinesid Therapeutics, Inc, priority 2020, published 2023).

Columns and labels:
[1] = system: DMT1-deficient Caco-2 cells; assay: shDMT1-Caco2 55Fe transport assay; format: cell-based; conditions: Caco-2
Source text: Assay 2: shDMT1-Caco2 ^55Fe Transport Assay to Assess Ligand Ability in Transporting Fe (III)
Cells: DMT1-deficient Caco-2 cells (alias: “shDMT1,” or “4A” cells) were from Grillo et al. Science, 2017, and were cryopreserved in liquid nitrogen prior to use.
Reagents and supplies: ^55FeCl3 was obtained from PerkinElmer (Boston, MA). Iron(III) chloride (FeCl3) hexahydrate was obtained from Sigma. Dulbecco's Modified Eagle Medium (DMEM), fetal bovine serum (FBS), L-glutamine, MEM nonessential amino acids, penicillin-streptomycin, G418, formic acid, methanol, high-purity water, ammonium formate, dimethyl sulfoxide (DMSO) were purchased from Fisher Scientific. Propranolol, atenolol and carbutamide were obtained from Sigma-Aldrich Chemical Company (St Louis, MO). Scintillation cocktail was obtained from Research Product International Co. (Mount Prospect, IL). Stericup filter system (PES membrane, 0.22 um pore size) was purchased from Fisher Scientific. Corning item #3378 24-well transwell insert plates.
Test articles: known compounds hinokitiol and deferiprone were purchased from Sigma. They are tested side by side with the small molecule ligands disclosed in this application. DMSO stocks (10 mM, which is 1,000× of the 10 μM dose level) of hinokitiol or test articles were prepared. A stock solution of 25 mM deferiprone in DMSO was prepared. The DMSO stock solutions were stored at −20° C. or below when not in use.
The growth medium was prepared according to the following table
Apical media (serum free DMEM, 10 mM MES, pH 6.5) was prepared. Apical master mix media was prepared fresh with the addition of 200 nM ^55Fe before each experiment. For the negative control propranolol and atenolol wells, 200 nM of non-radioactive iron was used.
The basolateral media was serum-free DMEM, 10 mM HEPES, 2% bovine serum albumin (BSA), pH 7.4.
For each experiment, cells were seeded into the 24-well transwell plates (0.5 mL of 50,000 cells/mL) with growth media. The basolateral companion plate was loaded with 1 mL of growth media. After 12-24 hr, both the apical and basolateral chamber were replaced with growth media. The apical media was changed 3× per week for 21-28 days, including a media change exactly 48 hr before the assay date.
On the assay day, the TEER values were measured and the average TEER value was obtained. Individual wells with TEER value >35% lower than the average of all wells were excluded. For the qualified wells, the apical layer (twice) and basolaterial (once) chambers were washed with PBS. The basolateral companion plate was then filled with 1 mL of basolateral media. Via addition down the side-wall of the apical well, 300 μL per well of the apical assay master mix, with the indicated dose level of test article, was added. Each dose was tested in triplicate. The plates were incubated (5% CO2 and 90% humidity at 37° C.) for the indicated timepoints. At each indicated timepoint, the basolateral supernatant was gently mixed via pipetting, and 200 μL of the basolateral supernatant was transferred to scintillation vials. To each scintillation counting vial, 5 mL of scintillation cocktail fluid was added. For each scintillation vial, the radioactivity (CPM) was determined with liquid scintillation counter LS6500. The counting time per vial was 5 min.
All raw CPM values are divided by the average value of blank DMSO solution to give a fold of change above the DMSO value. The mean and standard deviation of each compound at each concentration level and at each time point measured was calculated to give the fold change (fc) value. For rank order compounds, the fc value of a ligand at 4 h time point is further divided by the fold change (fc) value of hinokitiol (a positive control compound) at an equimolar concentration to arrive at the FC (normalized fold of change) value. Data reported in Tables 1 and 2 is 4 hr time point FC=fc-ligand @ 3 uM/fc-hino @ 3 μM, and FC hino=1.

[2] = Ligand facilitated Fe(III) efflux from liposomes; format: biochemical; design: unit not given here; conditions: efflux rate k at 10 μM ligand concentration; ferrozine absorbance 562 nm, 120 min kinetic read
Description: Assay 1: Ligand Facilitated Fe(III) Efflux from Liposomes
Preparation of POPC (1 palmitoyl-2-oleoyl-sn-glycero-3 phosphocholine): Cholesterol Liposomes
A 1M buffer solution of MES and Tris was prepared by dissolving 121.14 grams of Tris base and 213.25 grams of MES hydrate in 500 mL of MilliQ water and adjusted to pH7.0 using an […] HCl solution before bringing the total volume of the solution to 1 L. A 500 mM solution of FeCl3 was prepared by dissolving 0.811 grams of anhydrous FeCl3 in 10 mL of a 0.1M H2SO4 aqueous solution. Inside buffer is prepared in a 50 mL falcon tube, which was added with 25 mL of MilliQ water, 1.61 g of sodium citrate, 1.5 mL of the above FeCl3 solution, and 2.5 mL of the 1M MES/Tris HCl buffer (pH=7.0), and finally additional MilliQ H2O to bring to a 50 mL final volume.
Lipid solution is prepared by dissolving 206.9 mg of POPC (1-palmitoyl-2-oleoyl-sn-glycero-3-phosphocholine) and 8.6 mg of cholesterol in 10 mL of ethanol.
The lipids solution and the inside buffer solution are independently loaded into 10 mL luer lock syringes for loading into a virgin cartridge on a Precision Nanosystems NanoAssembler to prepare unilamaller liposomes with the following parameters: 7.5 mL total volume, 1.5:1 mixing ratio of inside buffer:lipids solution, 8 mL/min flow rate, ambient temperature, 0.35 mL start waste, and 0.05 mL of end waste. 7.5 mL of liposomes is harvested for purification on a 6-inch long, 1-inch diameter Sephadex G-50 column wetted in 600 mM sodium ascorbate and 50 mM MES/Tris HCl pH 7.0 buffer. This buffer also serves as the column running buffer. The crude liposome solution is carefully loaded with minimal volume of running buffer above the top of the Sphadex, allowed to enter the matrix, and the column is run with the continued addition of running buffer. The eluting liposomes, observed as a milky and turbid solution, are collected until free iron begins to elute (observed as a deep purple color) and the fractions are pooled for phosphorus quantitation.
Determination of Phosphorus Content:
Phosphorus content of eluted liposomes was determined by the process outlined below. 10 μL of liposome elution and a running buffer blank are added to a 5 mL glass vial containing 450 μL of a 8.9 M aqueous H2SO4 solution, the mixture is heated to 225° C. for 25 minutes in an aluminum heat block to hydrolyze POPC and cooled for 5 minutes. 200 μL of a 30% hydrogen peroxide aqueous solution is added to each vial and heated to 225° C. for 25 minutes. After cooling, the phosphorus content was determined using an Abcam Phosphate Assay kit, with buffer subtracted phosphorus levels determined against a standard curve of phosphate included in the kit. Liposomes were diluted to 1 mM phosphate in Running Buffer for use in assays after accounting for dilutions made during phospholipid digestion.
Determination of the Iron Transporting Rate Constant of the Ligands:
Determination of the rate at which a small molecule ligand liberates (transport) Ferric iron from liposomes is performed in clear bottom black 384-well plates on a Spectramax i3x set to read the absorbance at 562 nm in the kinetic mode every 60 seconds for 120 minutes. 1 μL of serially diluted DMSO stock solution of a small molecule ligand is added to wells in triplicate to give the final concentrations of 40, 20, 10, 5, 2.5, and 1.25 uM of the ligand at 80 μL final volume, followed by addition of 1 μL of 100 mM Ferrozine in water to give a final concentration of 1 mM ferrozine. 78 μL of liposomes diluted to 1 mM phosphorus in running buffer is added to wells as quickly as possible (using a digital repeater multichannel pipette) with the kinetic read initiated as rapidly as possible after addition of liposomes to all wells. Typically, eight compounds at six concentrations are tested in triplicate simultaneously. […]

| SMILES | Caco2 shDMT1 transport FC @ 3 μM, 4 h [1] | Liposome Fe transport kefflux at 10 μM [2] |
| --- | --- | --- |
| O=c1c(O)ccccc1F | 0.01-0.5 | 0.1-5 |
| O=c1ccc(C2CC3CCC(C2)O3)ccc1O (stereo not drawn) | 0.01-0.5 | 0.1-5 |
| O=c1ccc(C2CCOCC2)ccc1O | 0.01-0.5 | 0.1-5 |
| O=c1cccc(C2CCOCC2)cc1O | 0.01-0.5 | 10-25 |
| O=c1ccccc(C2CCCCO2)c1O (stereo not drawn) | 1-5 | 0.1-5 |
| O=c1ccc(OC2CCC2)ccc1O | 1-5 | 10-25 |
| CC(C)Oc1ccc(O)c(=O)cc1 | 0.01-0.5 | 7.5-10 |
| CCOc1ccc(O)c(=O)cc1 | 0.01-0.5 | 7.5-10 |
| CC(C)Oc1cccc(=O)c(O)c1 | 0.5-1 | 5-7.5 |
| COc1cccc(=O)c(O)c1 | 0.01-0.5 | 5-7.5 |
| CCOc1cccc(=O)c(O)c1 | 0.5-1 | 5-7.5 |
| Cc1cccc(C)c(=O)c1O | 1-5 | 10-25 |
| Cc1ccc(O)c(=O)c(C)c1 | 1-5 | 5-7.5 |
| Cc1ccc(C)c(=O)c(O)c1 | 1-5 | 0.1-5 |
| Cc1ccc(C2CC2)cc(O)c1=O | 0.5-1 | 7.5-10 |
| Cc1c(C2CC2)cccc(=O)c1[O-].[Na+] | 0.5-1 | 0.1-5 |
| Cc1cc(C2CC2)ccc(O)c1=O | 1-5 | 0.1-5 |
| CCc1ccc(O)c(=O)c(C)c1 | 1-5 | 5-7.5 |
| CCc1ccc(C)c(=O)c(O)c1 | 0.5-1 | 5-7.5 |
| Cc1ccc(C(C)C)cc(O)c1=O | 0.5-1 | 0.1-5 |
| Cc1ccc(F)c(=O)c([O-])c1.[Na+] | 0.01-0.5 | 0.1-5 |

| SMILES | Caco2 shDMT1 transport FC @ 3 μM, 4 h [1] | Liposome Fe transport kefflux at 10 μM [2] |
| --- | --- | --- |
| O=c1c(F)cccc(C2CCCO2)c1O (stereo not drawn) | 0.01-0.5 | 5-7.5 |
| Cc1ccc(C(F)(F)F)c(=O)c(O)c1 | 0.01-0.5 | 7.5-10 |
| CC(C)c1ccc(C(F)(F)F)c(=O)c(O)c1 | 0.01-0.5 | 5-7.5 |
| Cc1ccc(O)c(=O)c(C(F)(F)F)c1 | 0.01-0.5 | 10-25 |
| O=c1ccccc(C2CCCO2)c1O (stereo not drawn) | 1-5 | 10-25 |
| O=c1ccccc([C@H]2CCCO2)c1O | 0.1-5 | 7.5-10 |
| O=c1ccccc([C@@H]2CCCO2)c1O | 0.1-5 | 7.5-10 |
| O=c1cccc(C2CCCO2)cc1O (stereo not drawn) | 0.01-0.5 | 7.5-10 |
| O=c1ccc(C2CCCO2)ccc1O (stereo not drawn) | 0.01-0.5 | 7.5-10 |
| O=c1ccc(C2CC3CC3C2)ccc1O (stereo not drawn) | 0.01-0.5 | 5-7.5 |
| CC1(C)CCC(c2cccc(=O)c(O)c2)C1 (stereo not drawn) | 0.01-0.5 | 5-7.5 |
| O=c1ccc(C2CCC2)ccc1O | 0.01-0.5 | 10-25 |
| O=c1ccc([C@@H]2CCC[C@H]2O)ccc1O | 0.01-0.5 | 7.5-10 |
| CCOC(=O)N1CCC(c2ccc(O)c(=O)cc2)CC1 | 0.01-0.5 | 5-7.5 |
| CC(=O)N1CCC(c2ccc(O)c(=O)cc2)CC1 | 0.01-0.5 | 5-7.5 |
| O=c1ccccc(C2CCOC2)c1O (stereo not drawn) | 0.01-0.5 | <0.1 |
| O=c1cccc(OC2COC2)cc1O | 0.01-0.5 | 0.1-5 |
| Cc1ccc(O)c(=O)c(F)c1 | 0.01-0.5 | 0.1-5 |
| O=c1ccccc(C2CCCO2)c1S (stereo not drawn) | 0.01-0.5 | 7.5-10 |
| CCc1cccc(F)c(=O)c1O | 0.01-0.5 | 10-25 |
| O=c1ccc(OC2CC2)ccc1O | 0.5-1 | 10-25 |
